Test results: patent US20260209222A1, “CBL-B MODULATORS AND USES THEREOF” (Nimbus Clio, Inc., priority 2022, published 2026)

Columns and labels:
[1] = test system: Recombinant human c-Cbl (aa 47-435); experiment: c-Cbl Biochemical Assay (TR-FRET); details: ratio from the Cbl-b and c-Cbl TR-FRET biochemical assays
Description: c-Cbl Biochemical Assay (TR-FRET)
Recombinant human c-Cbl (aa 47-435) was expressed in E coli, purified and biotinylated in vitro. The protein was diluted to 12 nM in freshly prepared assay buffer consisting of 50 mM HEPES, pH 7.0, 100 mM NaCl, 5 mM MgCl2, 0.01% Triton-X 100, 0.01% BSA and 1 mM DTT. Recombinant human Src (aa 254-536)-GSSGSS-Zap-70 (aa 281-297) fusion protein was expressed in E coli and purified. Protein was diluted in assay buffer to 5-20 nM and ATP was added to 1 mM. Recombinant human UBE2D2(C85K) was expressed in E coli, purified and ubiquitinated and Bodipy labelled in vitro. Protein was diluted to 200 nM in assay buffer without MgCl2 (or Cisbio PPI buffer). Streptavidin-Terbium was added to 2 nM and EDTA to 10 mM, to provide a binding assay mix. Compounds were dissolved in DMSO and diluted to prepare a ten-point half log dilution series. 100 nl of each compound concentration was dispensed in duplicate in a 384 well black assay plate using acoustic dispensing. Wells for maximum signal controls received 100 nl of DMSO only and wells for minimum controls received 100 nl of a reference inhibitor compound at a final assay concentration of 100 mM to produce 100% inhibition. 5 μl of diluted c-Cbl enzyme was added to all wells of the assay plate and incubated at RT for 30 min. The enzyme assay was initiated by addition of 5 d of Src-Zap/ATP mix to all wells, and the plate incubated at RT for 60-90 min. The enzyme reaction was terminated and the binding reaction was initiated by adding 10p of binding assay mix to all wells and incubating the plate at RT for 60 min prior to assay read. Final assay conditions consisted of 6 nM c-Cbl. 2.5-10 nM Src-Zap70, 0.5 mM ATP. 1% (v/v) DMSO (enzyme reaction) and 100 nM UBE2D2(C85K)-Ub-FL-BODIPY, 5 mM EDTA, 1 nM Streptavidin-Tb (binding reaction). The HTRF assay signal was measured at 520 nm on an Envision plate reader, with reference signal at 485 or 620 nm. Data was normalized using maximum and minimum assay controls: % Inhibition=100−(100*((maximum control)−unknown)/(maximum control−minimum control)). A 4-parameter dose-response equation was used to fit the normalized dose-response data and derive an IC50 for test compounds.

[2] = target: T1, Recombinant human Cbl-b (aa 36-427) (Homo sapiens, UniProt Q13191); experiment: Cbl-b Biochemical Assay (TR-FRET); details: 6 nM Cbl-b, 1-2.5 nM Src-Zap70, 0.5 mM ATP; HTRF signal at 520 nm
T1 construct: Recombinant human Cbl-b (aa 36-427) was expressed in E coli; biotin (biotinylated in vitro); made in house; host or cells: E. coli
T1 sequence (Q13191 36-427): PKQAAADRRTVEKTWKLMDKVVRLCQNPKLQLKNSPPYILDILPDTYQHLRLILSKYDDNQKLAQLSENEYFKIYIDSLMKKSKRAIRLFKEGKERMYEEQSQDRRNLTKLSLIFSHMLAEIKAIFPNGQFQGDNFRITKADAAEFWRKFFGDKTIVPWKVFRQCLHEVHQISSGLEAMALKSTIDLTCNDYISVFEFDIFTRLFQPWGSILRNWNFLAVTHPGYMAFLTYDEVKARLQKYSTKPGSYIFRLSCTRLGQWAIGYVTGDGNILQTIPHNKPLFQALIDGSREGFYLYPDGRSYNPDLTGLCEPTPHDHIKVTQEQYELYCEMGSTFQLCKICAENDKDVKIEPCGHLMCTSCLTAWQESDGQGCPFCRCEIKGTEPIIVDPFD
Description: Cbl-b Biochemical Assay (TR-FRET)
Recombinant human Cbl-b (aa 36-427) was expressed in E coli, purified and biotinylated in vitro. The protein was diluted to 12 nM in freshly prepared assay buffer consisting of 50 mM HEPES, pH 7.0, 100 mM NaCl, 5 mM MgCl2, 0.01% Triton-X 100, 0.01% BSA and 1 mM DTT. Recombinant human Src (aa 254-536)-GSSGSS-Zap-70 (aa 281-297) fusion protein was expressed in E coli and purified. Protein was diluted in assay buffer to 2-5 nM and supplemented with ATP to 1 mM. Fluorescein-BODIPY labeled UBED2D(C85K)-Ub was prepared by conjugating ubiquitin (Ub) labeled at its N-terminus with Fluorescein-BODIPY maleimide (ThermoFisher Catalog no B10250) to E coli expressed and purified UBED2D(C85K) [see Dou et al Nature Structural and Molecular Biology 8: 982-987, 2013]. Recombinant human UBE2D2(C85K) was expressed in E coli, purified and ubiquitinated and Bodipy labelled in vitro. Protein was diluted to 200 nM in assay buffer without MgCl2 (or Cisbio PPI buffer). Streptavidin-Terbium was added to 2 nM and EDTA to 10 mM, to provide a binding assay mix. Compounds were dissolved in DMSO and diluted to prepare a ten-point dilution series. 100 nl of each compound concentration was dispensed in duplicate in a 384 well black assay plate using acoustic dispensing. Wells for maximum signal controls received 100 nl of DMSO only and wells for minimum signal controls received 100 nl of a reference inhibitor compound at a final assay concentration of 100 mM to produce 100% inhibition. 5 μl of diluted Cbl-b enzyme was added to all wells of the assay plate and incubated at RT for 30-60 min. The enzyme assay was initiated by addition of 5 μl of Src-Zap/ATP mix to all wells, and the plate incubated at RT for 60 min. The enzyme reaction was terminated and the binding reaction was initiated by adding 10p of binding assay mix to all wells and incubating the plate at RT for 60 min prior to assay read. Final assay conditions consisted of 6 nM Cbl-b, 1-2.5 nM Src-Zap70, 0.5 mM ATP, 1% (v/v) DMSO (enzyme reaction) and 100 nM UBE2D2(C85K)-Ub-FL-BODIPY, 5 mM EDTA, 1 nM Streptavidin-Tb (binding reaction). The HTRF assay signal was measured at 520 nm on an Envision plate reader, with reference signal at 485 or 620 nm. Data was normalized using maximum and minimum assay controls: % Inhibition=100−(100*((maximum control)−unknown)/(maximum control−minimum control)). A 4-parameter dose-response equation was used to fit the normalized dose-response data and derive an IC50 for test compounds.

Structure (SMILES)	Cbl-b/c-Cbl Selectivity [1]	IC50 [2] [µM]
Cn1cnnc1-c1ccc(C(F)(F)F)cc1-c1cc(NCCCC#N)nc(-c2nc3cc(CNCC4CC4)cc(C(F)(F)F)c3o2)c1 [I-54, 4-{[6-(5-{[(cyclopropylmethyl)amino]methyl}-7-(trifluoromethyl)-1,3-benzoxazol-2-yl)-4-[2-(4-methyl-1,2,4-triazol-3-yl)-5-(trifluoromethyl)phenyl]pyridin-2-yl]amino}butanenitrile; formic acid]	7	> 5
Cn1cnnc1-c1ccccc1-c1cc(NCCCC#N)nc(-c2nc3cc(CNCC(C)(C)O)cc(C(F)(F)F)c3o2)c1 [I-55, 4-((6-(5-(((2-Hydroxy-2-methylpropyl)amino)methyl)-7-(trifluoromethyl)benzo[d]oxazol-2-yl)-4-(2-(4-methyl-4H-1,2,4-triazol-3-yl)phenyl)pyridin-2-yl)amino)butanenitrile]	11	< 0.2
C[C@H]1CCCN(Cc2cc(C(F)(F)F)c3oc(-c4cccc([C@@H](c5nncn5C)[C@H]5C[C@@H](C(F)(F)F)C5)c4)nc3c2)C1 [I-56]	5	> 5
C[C@H]1CCCN(Cc2cc(C(F)(F)F)c3oc(-c4cccc([C@H](c5nncn5C)[C@H]5C[C@H](C(F)(F)F)C5)c4)nc3c2)C1 [I-57]	2	> 5
C[C@H]1CCCN(Cc2cc(C(F)(F)F)c3oc(-c4cccc([C@@H](c5nncn5C)[C@H]5C[C@H](C(F)(F)F)C5)c4)nc3c2)C1 [I-58]	4	> 5
Cn1cnnc1[C@H](c1cccc(-c2nc3cc(CN4CCC5(CCC5)C4)cc(C(F)(F)F)c3o2)c1)[C@H]1C[C@@H](C(F)(F)F)C1 [I-60]	1	> 5
Cn1cnnc1[C@H](c1cccc(-c2nc3cc(CN4CCC5(CCC5)C4)cc(C(F)(F)F)c3o2)c1)[C@H]1C[C@H](C(F)(F)F)C1 [I-62]	2	> 5
Cn1cnnc1[C@@H](c1cccc(-c2nc3cc(CN4CCC5(CCC5)C4)cc(C(F)(F)F)c3o2)c1)[C@H]1C[C@@H](C(F)(F)F)C1 [I-63]	13	0.2 to 5
